Counter-ions that a name gives are not always drawn.
Each compound was assayed on SARS-CoV-2 (WA1) (assay: microbe, parasite or virus in culture). Conditions: Severe acute respiratory syndrome coronavirus 2, Vero C1008.
Format: cell-based
`Cc1ccc(Nc2nc(Nc3cccc(C(F)(F)F)c3)nc(N3CCOCC3)n2)cc1C` [VIRADEM-11914, N-(3,4-Dimethylphenyl)-6-morpholin-4-yl-N^1-(3-trifluoromethylphenyl)-[1,3,5]triazine-2,4-diamine] showed an IC50 of 130 nM.

Same assay, conditions: Severe acute respiratory syndrome coronavirus 2, Vero C1008, VIRADEM compounds, SARS-CoV-2(WA1) CPE assay, Round 2, concentration range 1000-0.05 nM, Vero E6; read-out: IC50
`Cc1ccc(N2C(N3CCOCC3)=NC(N)=NC2Nc2cccc(F)c2)cc1` (stereo not drawn) [VIRADEM-11785, N-(3-Fluorophenyl)-6-morpholin-4-yl-N^1-p-tolyl-[1,3,5]triazine-2,4-diamine hydrochloride] gave an IC50 of 170 nM.
With `Cc1cccc(N2C(N3CCOCC3)=NC(N)=NC2Nc2cccc(F)c2)c1` (stereo not drawn) [VIRADEM-11786, N-(3-Fluorophenyl)-6-morpholin-4-yl-N^1-m-tolyl-[1,3,5]triazine-2,4-diamine hydrochloride] the IC50 was 380 nM.
Compound `Cc1cccc(N2C(N3CCOCC3)=NC(N)=NC2Nc2ccc(F)cc2)c1` (stereo not drawn) [VIRADEM-11787, N-(4-Fluorophenyl)-6-morpholin-4-yl-N^1-m-tolyl-[1,3,5]triazine-2,4-diamine hydrochloride] has an IC50 of 360 nM.
For `CCOc1ccc(NC2N=C(N)N=C(N3CCOCC3)N2c2cccc(C)c2)cc1` (stereo not drawn) [VIRADEM-11794, N-(4-Ethoxyphenyl)-6-morpholin-4-yl-N^1-m-tolyl-[1,3,5]triazine-2,4-diamine hydrochloride], the IC50 was 270 nM.
`Cc1ccc(NC2N=C(N)N=C(N3CCCC3)N2c2ccc(F)cc2)cc1C` (stereo not drawn) [VIRADEM-11809, N-(3,4-Dimethylphenyl)-N^1-(4-fluorophenyl)-6-pyrrolidin-1-yl-[1,3,5]triazine-2,4-diamine hydrochloride] showed an IC50 greater than 1000 nM.
For `CC(=O)c1cccc(Nc2nc(Nc3ccc(Cl)cc3)nc(N3CCOCC3)n2)c1` [VIRADEM-11882, 1-{3-[4-(4-chlorophenylamino)-6-morpholin-4-yl-[1,3,5]triazin-2-ylamino]-phenyl}-ethanone], the IC50 was 120 nM.
For `CC(=O)c1cccc(Nc2nc(Nc3ccc(F)cc3)nc(N3CCOCC3)n2)c1` [VIRADEM-11883, 1-{3-[4-(4-Fluorophenylamino)-6-morpholin-4-yl-[1,3,5]triazin-2-ylamino]-phenyl}-ethanone hydrochloride], the IC50 was greater than 1000 nM.
Compound `CCCCc1ccc(Nc2nc(Nc3cccc(C(C)=O)c3)nc(N3CCOCC3)n2)cc1` [VIRADEM-12037, 1-{3-[4-(4-Butylphenylamino)-6-morpholin-4-yl-[1,3,5]triazin-2-ylamino]-phenyl}-ethanone] has an IC50 greater than 1000 nM.
`CCOc1cccc(N2C(N3CCCC3)=NC(N)=NC2Nc2ccc(C)c(C)c2)c1` (stereo not drawn) [VIRADEM-12185, N-(3,4-Dimethylphenyl)-N^1-(3-ethoxyphenyl)-6-pyrrolidin-1-yl-[1,3,5]triazine-2,4-diamine hydrochloride] showed an IC50 greater than 1000 nM.
`CC(=O)c1cccc(Nc2nc(Nc3cccc(Cl)c3)nc(N3CCOCC3)n2)c1` [VIRADEM-12188, 1-{3-[4-(3-Chlorophenylamino)-6-morpholin-4-yl-[1,3,5]triazin-2-ylamino]-phenyl}-ethanone] was tested, and the IC50 was 320 nM.
Work on `COc1cccc(NC2N=C(N)N=C(N3CCOCC3)N2c2ccccc2)c1` (stereo not drawn) [VIRADEM-12252, N-(3-Methoxyphenyl)-6-morpholin-4-yl-N^1-phenyl-[1,3,5]triazine-2,4-diamine hydrochloride] yielded an IC50 of 110 nM.

Same assay, conditions: VIRADEM compounds, SARS-CoV-2(WA1) CPE assay, Round 2, concentration range 1000-0.05 nM, Vero E6; read-out: IC50
Compound `CCOC(=O)c1ccc(Nc2nc(Nc3ccc(C)c(C)c3)nc(N3CCOCC3)n2)cc1` [VIRADEM-11913, 4-[4-(3,4-Dimethylphenylamino)-6-morpholin-4-yl-[1,3,5]-2-ylamino]-benzoic acid ethyl ester] has an IC50 of 40 nM.
For `Cc1cccc(Nc2nc(Nc3ccc(C(C)C)cc3)nc(N3CCOCC3)n2)c1` [VIRADEM-12251, N-(4-Isoproylphenyl)-6-morpholin-4-yl-N^1-m-tolyl-[1,3,5]triazine-2,4-diamine hydrochloride], the IC50 was 560 nM.
With `Cc1ccc(Nc2nc(Nc3ccc(C(C)C)cc3)nc(N3CCOCC3)n2)cc1` [VIRADEM-12253, N-(4-Isoproylphenyl)-6-morpholin-4-yl-N^1-p-tolyl-[1,3,5]triazine-2,4-diamine hydrochloride] the IC50 was 510 nM.

From patent publication US20260076973A1 (priority 2023, published 2026)
